Experiment [1] deals with T1, Grb7-SH2 domain (Homo sapiens, UniProt Q14451). Also on record: Grb7-SH2 (encoding residues 415–532); made in house; host or cells: E. coli BL21 (DE3) pLysS. The note with it: previously determined by ITC; cited from earlier work. (ITC needs no label: the signal is the heat of the interaction.)
In experiment [2] the target is T1, Grb7-SH2 domain. Briefly: SPR binding of G7 peptides to GST-Grb7-SH2 domain. The note with it: for Kd: KD (equilibrium dissociation constant), steady-state equilibrium, single-site model, 50 mM sodium phosphate, 150 mM NaCl, 1 mM DTT, pH 7.4, 25 °C; for Bmax (maximum binding signal): fit to single-site saturation model. A general note: Surface plasmon resonance follows binding to a sensor surface in real time, without labels.

The next experiment concerns the target T2, Grb14-SH2 domain (Homo sapiens, UniProt Q14449).
T2 construct: Grb14-SH2 (encoding residues 426–540); made in house; host or cells: E. coli BL21 (DE3) pLysS
T2 sequence (Q14449 426-540): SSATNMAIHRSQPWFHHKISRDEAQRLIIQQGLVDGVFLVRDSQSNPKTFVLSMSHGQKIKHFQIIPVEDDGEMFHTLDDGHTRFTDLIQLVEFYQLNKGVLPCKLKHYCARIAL
Description: SPR binding of G7-B4 to GST-Grb14-SH2 domain. An excerpt: (§1) Previous studies have established the preferential binding of the G7-18NATE peptide to Grb7-SH2 over closely related SH2 domains (Grb10- and Grb14-SH2 domains that share 67% and 65% identity respectively, to the Grb7-SH2 and Grb2-SH2 (~26% identity) domain that shares the pYXN peptide recognition motif)[26]. In order to determine whether the bicyclic peptide G7-B4 retains its specificity for the Grb7-SH2 domain we measured the binding of G7-B4 to Grb2-, Grb10- and Grb14-SH2 domains using SPR. […] Therefore the binding of G7-B4 to Grb2-, Grb10- and Grb14-SH2 is over 130 times weaker than binding to Grb7-SH2 domain, showing that G7-B4 is highly specific for the Grb7-SH2 domain.
(§2) The pGEX2T plasmids with inserts containing Grb7-SH2 (encoding residues 415–532), Grb2-SH2 (encoding residues 58–160), Grb10-SH2 (encoding residues 471–594) and Grb14-SH2 (encoding residues 426–540) were kindly provided by Dr. Roger Daly. Glutathion-S-Transferase (GST)-Grb2-SH2, GST-Grb7-SH2, Grb-10-SH2 and GST-Grb14-SH2 were all expressed and purified as previously described. […] The free Grb7-SH2 used in crystallography was expressed as a GST-fusion protein and was purified by GST affinity, followed by thrombin cleavage to liberate free Grb7-SH2, and then purified by cation exchange chromatography, and size exclusion chromatography as previously described. […]

The next experiment has as its target T3, Grb2-SH2 domain (Homo sapiens, UniProt P62993).
T3 construct: Grb2-SH2 (encoding residues 58–160); made in house; host or cells: E. coli BL21 (DE3) pLysS
Briefly: SPR binding of G7-B4 to GST-Grb2-SH2 domain.
Description: as §1, §2

Another experiment addresses T4, Grb10-SH2 domain (Homo sapiens, UniProt Q13322).
T4 construct: Grb10-SH2 (encoding residues 471–594); made in house; host or cells: E. coli BL21 (DE3) pLysS
T4 sequence (Q13322 471-594): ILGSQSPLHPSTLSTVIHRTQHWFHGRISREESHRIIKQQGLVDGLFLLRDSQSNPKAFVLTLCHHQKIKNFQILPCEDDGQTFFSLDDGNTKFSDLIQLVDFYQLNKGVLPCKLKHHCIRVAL
Briefly: SPR binding of G7-B4 to Grb10-SH2 domain.
Description: as §1, §2

Experiment [3] has as its target T5, GST-Grb7-SH2 (UniProt Q14451 415-532).
T5 construct: pGEX2T insert; GST fusion used in SPR, captured by an anti-GST antibody; also called Grb7-SH2 domain
Description: SPR; BIAcore T100; GST-SH2 proteins captured on anti-GST antibody on a CM5 chip, GST on the control cells; peptides 0-100 uM injected 60 s at 30 uL/min; 50 mM sodium phosphate, 150 mM NaCl, 1 mM DTT, pH 7.4; 25 C; KD from steady-state curves, single-site model. The note with it: both partners purified.

Experiment [4] has as its target T5, GST-Grb7-SH2. Described as above. Particulars: both partners purified. This is another data set of the same source.
Setting [5] is: SPR, no curvature up to 100 μM, saturation well below 50%.

“Also recorded” adds a separate entry of the source. Where two headings read alike, the source gives them in different places. Positions of bridges follow the written chain, without caps; N, C: chain ends. Non-standard residues stand in square brackets, D forms with d. Residues, ends and D or L forms follow the SMILES beside them. Ser(allyl) = C=CCOC[C@H](N)C(=O)O Bounds are passed on as bounds.

T1 sequence (Q14451 415-532): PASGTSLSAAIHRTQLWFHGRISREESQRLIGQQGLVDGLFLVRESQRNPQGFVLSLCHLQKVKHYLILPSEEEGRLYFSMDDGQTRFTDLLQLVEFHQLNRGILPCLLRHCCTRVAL
T5 sequence (Q14451 415-532): as above
T3 sequence (P62993 58-160): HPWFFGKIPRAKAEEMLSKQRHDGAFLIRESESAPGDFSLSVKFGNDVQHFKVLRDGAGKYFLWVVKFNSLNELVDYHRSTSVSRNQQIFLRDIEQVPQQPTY

One may read the Kd as the concentration at which binding is half-saturated. Turning to `NC(=O)C[C@@H]1NC(=O)[C@H](CC(=O)O)NC(=O)[C@H](Cc2ccc(O)cc2)NC(=O)CNC(=O)[C@H](CCC(=O)O)NC(=O)[C@H](Cc2ccccc2)NC(=O)[C@@H]2COCC=CCOC[C@H](NC1=O)C(=O)N[C@@H](Cc1ccccc1)C(=O)N1CCC[C@H]1C(=O)N[C@H](C(N)=O)CSCC(=O)N2` [Peptide G7-B1] ({CH2CO}-[Ser(allyl)]FEGYDN[Ser(allyl)]FPC-NH2; staple 1-8; thioether N-11), the Kd at Grb7-SH2 domain [1] was 1.9 µM.
Regarding `NC(=O)C[C@@H]1NC(=O)[C@H](CC(=O)O)NC(=O)[C@H](Cc2ccc(O)cc2)NC(=O)CNC(=O)[C@H](CCC(=O)O)NC(=O)[C@H](Cc2ccccc2)NC(=O)[C@@H]2COCC=CCOC[C@H](NC1=O)C(=O)N1CCC[C@H]1C(=O)N[C@H](C(N)=O)CSCC(=O)N2` [Peptide G7-B3] ({CH2CO}-[Ser(allyl)]FEGYDN[Ser(allyl)]PC-NH2; staple 1-8; thioether N-10), at Grb7-SH2 domain [2] (SPR), the Kd came to 4.9 ± 0.03 µM and the “Bmax (maximum binding signal)” value turned out to be 53.47 ± 0.02 RU. In addition, the “times weaker affinity compared to G7-B1” value at Grb7-SH2 domain [2] (ratio of SPR KD values) is given as “approximately 3 times”.
In the case of `C=CCOC[C@@H]1NC(=O)CSC[C@@H](C(N)=O)NC(=O)[C@H](COCC=C)NC(=O)[C@H](CC(N)=O)NC(=O)[C@H](CC(=O)O)NC(=O)[C@H](Cc2ccc(O)cc2)NC(=O)CNC(=O)[C@H](CCC(=O)O)NC(=O)[C@H](Cc2ccccc2)NC1=O` [Peptide G7-B4NS] ({CH2CO}-[Ser(allyl)]FEGYDN[Ser(allyl)]C-NH2; thioether N-9), on Grb7-SH2 domain [2] (SPR), binding was put at a Kd of 4.9 µM and the “Bmax (maximum binding signal)” value came out at 34.78 ± 0.01 RU. Also, the “fold loss in binding affinity compared to G7-B4” value on Grb7-SH2 domain [2] (ratio of SPR KD values) came out at 6 fold.
In the case of `NC(=O)C[C@@H]1NC(=O)[C@H](CC(=O)O)NC(=O)[C@H](Cc2ccc(O)cc2)NC(=O)CNC(=O)[C@H](CCC(=O)O)NC(=O)[C@H](Cc2ccccc2)NC(=O)[C@@H]2COCC=CCOC[C@H](NC1=O)C(=O)N[C@H](C(N)=O)CSCC(=O)N2` [Peptide G7-B4] ({CH2CO}-[Ser(allyl)]FEGYDN[Ser(allyl)]C-NH2; staple 1-8; thioether N-9), the Kd on Grb14-SH2 domain (setting [5]), at Grb2-SH2 domain (setting [5]) and on Grb10-SH2 domain (setting [5]) was over 100 µM each time. In addition, the “times weaker binding than to Grb7-SH2 domain” value at Grb14-SH2 domain (selectivity Grb7-SH2 over Grb14-SH2), at Grb2-SH2 domain (selectivity Grb7-SH2 over Grb2-SH2) and at Grb10-SH2 domain (selectivity Grb7-SH2 over Grb10-SH2) was “over 130 times” in each case.
As to “CH3-CO-NH2-(XFEGYDNX)-CONH2 where X = O-allylserine (Ac-[Ser(allyl)]FEGYDN[Ser(allyl)]-NH2; staple 1-8; SMILES CC(=O)N[C@H]1COCC=CCOC[C@@H](C(N)=O)NC(=O)[C@H](CC(N)=O)NC(=O)[C@H](CC(=O)O)NC(=O)[C@H](Cc2ccc(O)cc2)NC(=O)CNC(=O)[C@H](CCC(=O)O)NC(=O)[C@H](Cc2ccccc2)NC1=O) [Peptide G7-B1NT]”, the “binding to Grb7-SH2 domain (in words)” value with Grb7-SH2 domain [2] (SPR, peptide up to 100 μM) is given as “very weak binding; also recorded: dramatically reduced affinity”.
One may read the koff as the first-order rate constant of dissociation. A lower koff goes with slow dissociation. In turn, {CH2CO}-[Ser(allyl)]FEGYDN[Ser(allyl)]C-NH2 (staple 1-8; thioether N-9) [G7-B4 (cyclo-(CH2CO-(XFEGYDNXC)-CONH2 where X = O-allylserine)] registered a Kd with GST-Grb7-SH2 [3] of 0.83 µM. Further, the koff in the experiment with GST-Grb7-SH2 [4] is about 0.25 s⁻¹.

B1: G7-B1 (cyclo-(CH2CO-(XFEGYDNXFPC)-CONH2 where X = O-allylserine) (peptide)
chain: {CH2CO}-[Ser(allyl)]FEGYDN[Ser(allyl)]FPC-NH2
modifications: staple 1-8; thioether N-11
SMILES: NC(=O)C[C@@H]1NC(=O)[C@H](CC(=O)O)NC(=O)[C@H](Cc2ccc(O)cc2)NC(=O)CNC(=O)[C@H](CCC(=O)O)NC(=O)[C@H](Cc2ccccc2)NC(=O)[C@@H]2COCC=CCOC[C@H](NC1=O)C(=O)N[C@@H](Cc1ccccc1)C(=O)N1CCC[C@H]1C(=O)N[C@H](C(N)=O)CSCC(=O)N2
With B1, the Kd with GST-Grb7-SH2 [3] amounted to 1.5 µM. In the experiment with GST-Grb7-SH2 [4], the koff is about 0.21 s⁻¹.

B2: G7-B4NS (cyclo-(CH2CO-(XFEGYDNXC)-CONH2 where X = O-allylserine), without ring closing metathesis (peptide)
chain: {CH2CO}-[Ser(allyl)]FEGYDN[Ser(allyl)]C-NH2
modifications: thioether N-9
SMILES: C=CCOC[C@@H]1NC(=O)CSC[C@@H](C(N)=O)NC(=O)[C@H](COCC=C)NC(=O)[C@H](CC(N)=O)NC(=O)[C@H](CC(=O)O)NC(=O)[C@H](Cc2ccc(O)cc2)NC(=O)CNC(=O)[C@H](CCC(=O)O)NC(=O)[C@H](Cc2ccccc2)NC1=O
As for B2, the affinity in the experiment with GST-Grb7-SH2 [3], expressed as Kd, was 4.93 µM.

Values taken from PMC4891710, “Unexpected involvement of staple leads to redesign of selective bicyclic peptide inhibitor of Grb7” (Scientific Reports, 2016).
